Measurements reported in ChEMBL document CHEMBL1201862, “PubChem BioAssay data set” (2004).
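Values below derive from 48-hour exposures of cells grown in 96-well plates, with endpoints linearly interpolated between the two concentrations bracketing the appropriate inhibition level. GI50 is the concentration that inhibits growth by half.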 Active and inactive are the calls of the source. Cut-off read from the data, not from the text of the source: active = GI50 up to about 1.1 µM and inactive = higher.

Experiments:
Experiment in all cases: NCI tumour cell line growth inhibition, 48 h
SW-620 = test system: SW-620
SK-OV-3 = test system: SK-OV-3
OVCAR-8 = test system: OVCAR-8
TK-10 = test system: TK-10
HOP-62 = test system: HOP-62
UO-31 = test system: UO-31
HT-29 = test system: HT-29
Malme-3M = test system: Malme-3M
XF498 = test system: XF498
CCRF-CEM = test system: CCRF-CEM
DLD-1 = test system: DLD-1
OVCAR-5 = test system: OVCAR-5
DMS-114 = test system: DMS-114
HL-60 = test system: HL-60
RXF 393 = test system: RXF 393
A549 = test system: A549
EKVX = test system: EKVX
SK-MEL-5 = test system: SK-MEL-5
HCT-15 = test system: HCT-15
MOLT-4 = test system: MOLT-4
U-251 = test system: U-251
NCI-H460 = test system: NCI-H460
NCI-H226 = test system: NCI-H226
A498 = test system: A498
IGROV-1 = test system: IGROV-1
SNB-75 = test system: SNB-75
M19-MEL = test system: M19-MEL
ACHN = test system: ACHN
NCI-H23 = test system: NCI-H23
786-0 = test system: 786-0
DMS-273 = test system: DMS-273
K562 = test system: K562
CAKI-1 = test system: CAKI-1
SK-MEL-28 = test system: SK-MEL-28
OVCAR-4 = test system: OVCAR-4
UACC-257 = test system: UACC-257
KM12 = test system: KM12
KM-20L2 = test system: KM-20L2
HCC 2998 = test system: HCC 2998
M14 = test system: M14
RXF 631 = test system: RXF 631
SF-539 = test system: SF-539
RPMI-8226 = test system: RPMI-8226
SF-295 = test system: SF-295
HCT-116 = test system: HCT-116
OVCAR-3 = test system: OVCAR-3
SK-MEL-2 = test system: SK-MEL-2
SNB-78 = test system: SNB-78
UACC-62 = test system: UACC-62
NCI-H522 = test system: NCI-H522
HOP-18 = test system: HOP-18
SN12C = test system: SN12C
HOP-92 = test system: HOP-92
COLO 205 = test system: COLO 205
LXFL 529 = test system: LXFL 529
SNB-19 = test system: SNB-19
SF-268 = test system: SF-268
LOX IMVI = test system: LOX IMVI
SR = test system: SR

Which results are given for `COC(=O)C(CC(=O)c1c[nH]c2ccccc12)c1c[nH]c2ccccc12` (configuration not stated)?
GI50 (SW-620): 22.8 µM (inactive); GI50 (SK-OV-3): 41.9 µM (inactive); GI50 (OVCAR-8): 22.6 µM (inactive); GI50 (TK-10): 31.2 µM (inactive); GI50 (HOP-62): 21.5 µM (inactive); GI50 (UO-31): 18.2 µM (inactive); GI50 (HT-29): 16.9 µM (inactive); GI50 (Malme-3M): 19.1 µM (inactive); GI50 (XF498): 17.9 µM (inactive); GI50 (CCRF-CEM): 17.9 µM (inactive); GI50 (DLD-1): 30.8 µM (inactive); GI50 (OVCAR-5): 22.2 µM (inactive); GI50 (DMS-114): 15.8 µM (inactive); GI50 (HL-60): 20.1 µM (inactive); GI50 (RXF 393): 14 µM (inactive); GI50 (A549): 21.2 µM (inactive); GI50 (EKVX): 23.4 µM (inactive); GI50 (SK-MEL-5): 16.4 µM (inactive); GI50 (HCT-15): 16.4 µM; GI50 (MOLT-4): 16.2 µM (inactive); GI50 (U-251): 20.8 µM (inactive); GI50 (NCI-H460): 18.8 µM (inactive); GI50 (NCI-H226): 22 µM (inactive); GI50 (A498): 20.3 µM (inactive); GI50 (IGROV-1): > 10 µM (inactive); GI50 (SNB-75): 21.2 µM (inactive); GI50 (M19-MEL): > 10 µM (inactive); GI50 (ACHN): 16.3 µM (inactive); GI50 (NCI-H23): 16.7 µM (inactive); GI50 (786-0): 23.9 µM (inactive); GI50 (DMS-273): 13.5 µM (inactive); GI50 (K562): 18.1 µM (inactive); GI50 (CAKI-1): 20 µM (inactive); GI50 (SK-MEL-28): 19.5 µM (inactive); GI50 (OVCAR-4): 17.1 µM (inactive); GI50 (UACC-257): 15.4 µM (inactive); GI50 (KM12): > 10 µM (inactive); GI50 (KM-20L2): 17.9 µM (inactive); GI50 (HCC 2998): 23 µM (inactive); GI50 (M14): 18.2 µM (inactive); GI50 (RXF 631): 15.8 µM (inactive); GI50 (SF-539): 19.3 µM (inactive); GI50 (RPMI-8226): 11.5 µM (inactive); GI50 (SF-295): > 10 µM (inactive); GI50 (HCT-116): 15.8 µM (inactive); GI50 (OVCAR-3): > 10 µM (inactive); GI50 (SK-MEL-2): 20.1 µM (inactive); GI50 (SNB-78): 22.2 µM (inactive); GI50 (UACC-62): > 10 µM (inactive)

What does the source list for `CCN(CC)c1c(C)nnn1C1OC(COC(C)=O)C(OC(C)=O)C(OC(C)=O)C1OC(C)=O` (configuration not stated)?
GI50 (SW-620): 15 µM (inactive); GI50 (SK-OV-3): > 100 µM (inactive); GI50 (NCI-H522): > 100 µM (inactive); GI50 (OVCAR-8): > 100 µM (inactive); GI50 (TK-10): > 100 µM (inactive); GI50 (HOP-62): > 100 µM (inactive); GI50 (UO-31): > 100 µM (inactive); GI50 (HT-29): > 100 µM (inactive); GI50 (Malme-3M): > 100 µM (inactive); GI50 (CCRF-CEM): > 100 µM (inactive); GI50 (DLD-1): > 100 µM (inactive); GI50 (OVCAR-5): > 100 µM (inactive); GI50 (DMS-114): > 100 µM (inactive); GI50 (HL-60): > 100 µM (inactive); GI50 (HOP-18): > 100 µM (inactive); GI50 (SN12C): > 100 µM (inactive); GI50 (A549): > 100 µM (inactive); GI50 (EKVX): > 100 µM (inactive); GI50 (SK-MEL-5): > 100 µM (inactive); GI50 (HCT-15): 38.6 µM; GI50 (MOLT-4): > 100 µM (inactive); GI50 (U-251): > 100 µM (inactive); GI50 (HOP-92): 70.8 µM (inactive); GI50 (NCI-H460): > 100 µM (inactive); GI50 (NCI-H226): > 100 µM (inactive); GI50 (A498): > 100 µM (inactive); GI50 (COLO 205): > 100 µM (inactive); GI50 (IGROV-1): > 100 µM (inactive); GI50 (SNB-75): > 100 µM (inactive); GI50 (LXFL 529): > 100 µM (inactive); GI50 (SNB-19): > 100 µM (inactive); GI50 (M19-MEL): > 100 µM (inactive); GI50 (ACHN): > 100 µM (inactive); GI50 (NCI-H23): > 100 µM (inactive); GI50 (786-0): > 100 µM (inactive); GI50 (DMS-273): > 10 µM (inactive); GI50 (K562): > 100 µM (inactive); GI50 (CAKI-1): > 100 µM (inactive); GI50 (SK-MEL-28): > 100 µM (inactive); GI50 (OVCAR-4): > 100 µM (inactive); GI50 (UACC-257): > 100 µM (inactive); GI50 (KM12): > 100 µM (inactive); GI50 (KM-20L2): > 100 µM (inactive); GI50 (HCC 2998): > 100 µM (inactive); GI50 (M14): > 100 µM (inactive); GI50 (RXF 631): > 100 µM (inactive); GI50 (SF-539): > 100 µM (inactive); GI50 (RPMI-8226): 28.6 µM (inactive); GI50 (SF-295): > 100 µM (inactive); GI50 (HCT-116): > 100 µM (inactive); GI50 (OVCAR-3): > 100 µM (inactive); GI50 (SNB-78): > 100 µM (inactive); GI50 (SF-268): > 100 µM (inactive); GI50 (UACC-62): > 100 µM (inactive)

What does the source list for `CN(c1n[n+]2c(-c3ccccc3)csc2s1)c1n[n+]2c(-c3ccccc3)csc2s1`?
GI50 (SW-620): > 100 µM (inactive); GI50 (SK-OV-3): > 100 µM (inactive); GI50 (NCI-H522): 33.7 µM (inactive); GI50 (OVCAR-8): > 100 µM (inactive); GI50 (TK-10): > 100 µM (inactive); GI50 (UO-31): > 100 µM (inactive); GI50 (HT-29): > 100 µM (inactive); GI50 (Malme-3M): 26.3 µM (inactive); GI50 (XF498): > 100 µM (inactive); GI50 (CCRF-CEM): 68.9 µM (inactive); GI50 (DLD-1): > 100 µM (inactive); GI50 (OVCAR-5): > 100 µM (inactive); GI50 (DMS-114): 59.6 µM (inactive); GI50 (HL-60): 47.6 µM (inactive); GI50 (HOP-18): > 100 µM (inactive); GI50 (SN12C): > 100 µM (inactive); GI50 (RXF 393): > 100 µM (inactive); GI50 (A549): > 100 µM (inactive); GI50 (EKVX): > 100 µM (inactive); GI50 (SK-MEL-5): 89.5 µM (inactive); GI50 (HCT-15): 0.144 µM; GI50 (MOLT-4): > 100 µM (inactive); GI50 (HOP-92): > 100 µM (inactive); GI50 (NCI-H460): > 100 µM (inactive); GI50 (NCI-H226): > 100 µM (inactive); GI50 (COLO 205): 46.7 µM (inactive); GI50 (IGROV-1): > 100 µM (inactive); GI50 (SNB-75): > 100 µM (inactive); GI50 (LXFL 529): 87.3 µM (inactive); GI50 (SNB-19): > 100 µM (inactive); GI50 (M19-MEL): > 100 µM (inactive); GI50 (ACHN): > 100 µM (inactive); GI50 (NCI-H23): > 100 µM (inactive); GI50 (786-0): > 100 µM (inactive); GI50 (DMS-273): > 100 µM (inactive); GI50 (K562): 42.8 µM (inactive); GI50 (SK-MEL-28): > 100 µM (inactive); GI50 (OVCAR-4): > 100 µM (inactive); GI50 (UACC-257): > 100 µM (inactive); GI50 (KM12): > 100 µM (inactive); GI50 (LOX IMVI): > 100 µM (inactive); GI50 (KM-20L2): > 100 µM (inactive); GI50 (HCC 2998): > 100 µM (inactive); GI50 (M14): > 100 µM (inactive); GI50 (SF-539): > 100 µM (inactive); GI50 (RPMI-8226): > 100 µM (inactive); GI50 (SR): 61.5 µM (inactive); GI50 (SF-295): > 100 µM (inactive); GI50 (HCT-116): > 100 µM (inactive); GI50 (OVCAR-3): > 100 µM (inactive); GI50 (SK-MEL-2): > 100 µM (inactive); GI50 (SNB-78): > 100 µM (inactive); GI50 (SF-268): > 100 µM (inactive); GI50 (UACC-62): > 100 µM (inactive)
